Data: publication PMC10281575, “PfCRT mutations conferring piperaquine resistance in falciparum malaria shape the kinetics of quinoline drug binding and transport” (PLOS Pathogens, 2023)
Values joined by “and” are separate entries in the source; they are usually repeats but may differ in a detail not shown here. Equal values may be shown once. Read-outs that look alike come from different tables or passages of the source.

Target: T1, PfCRT^Dd2 (Plasmodium falciparum, UniProt Q8IBZ9, A220S/I356T/K76T/M74I/N326S/N75E/Q271E/R371I)
T1 sequence (Q8IBZ9 1-424 M74I/N75E/K76T/A220S/Q271E/N326S/I356T/R371I): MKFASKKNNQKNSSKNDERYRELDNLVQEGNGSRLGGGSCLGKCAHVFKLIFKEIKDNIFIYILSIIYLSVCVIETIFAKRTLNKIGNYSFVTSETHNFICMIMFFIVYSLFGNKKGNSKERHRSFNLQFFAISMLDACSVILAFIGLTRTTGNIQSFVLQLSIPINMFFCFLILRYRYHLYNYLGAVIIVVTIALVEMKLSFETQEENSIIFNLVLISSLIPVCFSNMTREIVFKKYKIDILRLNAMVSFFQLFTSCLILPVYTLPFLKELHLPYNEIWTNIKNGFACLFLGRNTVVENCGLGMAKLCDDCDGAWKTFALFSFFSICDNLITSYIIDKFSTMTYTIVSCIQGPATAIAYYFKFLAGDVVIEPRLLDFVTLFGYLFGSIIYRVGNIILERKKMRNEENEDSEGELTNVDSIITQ
Assay: Competition kinetics of drug transport (radiolabeled substrate plus cold inhibitor), PfCRT^Dd2-expressing oocytes
Type: cell-based
Set-up: expressed in transfected cells; host or cells: Xenopus laevis oocytes injected with in vitro transcribed RNA (pSP64T)
Conditions: for PfCRTDd2-mediated PPQ transport 500 µM PPQ: single replicates; for Vmax, maximal velocity of drug transport: global fit; for β, partiality factor: factor on transport of the labeled drug by the other drug
Method: The experimental procedure and the data analysis were as described above.
The difference between the two models lies in the value of α, a parameter describing how much the affinity for the substrate changes when the inhibitor is already bound, and vice versa. […] The resulting Vmax,app values and the Vmax,app/KM,app ratios were plotted as a function of the inhibitor concentration (Fig 5A).
Drug transport assays were performed as previously described. Briefly, measurements of radiolabeled drug uptake were made over 1 h, unless otherwise specified. […] Where specified, one or more unlabeled drugs were also present at the indicated concentrations. […] The uptake assays were terminated by removing the oocytes from the reaction medium and washing them three times with 2 mL of ice-cold ND96 buffer. Each oocyte was transferred to a separate scintillation vial and lysed by the addition of 200 μL of a 5% SDS solution. The radioactivity in the sample was measured using a liquid scintillation analyser Tri-Carb 4910 TR (PerkinElmer). Water-injected oocytes were analyzed in parallel as a negative control. The buffer from each condition was measured in duplicate in parallel to each experiment to transform counts per minute into pmol of drug. Drug uptake attributable to PfCRT was determined by subtracting the background uptake from water-injected oocytes from that of PfCRT-expressing oocytes. In all cases, at least three independent experiments were performed on oocytes from different frogs, and for each condition in an experiment, measurements were made from 10 oocytes per treatment.
The following equations were adopted from Segel (1993), and the reader is referred to that text for the assumptions made in the author’s approach in the derivation of each equation [31]. The concentration of substrate is denoted as [S1] and the concentration of the inhibiting substrate is denoted as [S2]. KS1 and KS2 are the dissociation constants for the respective substrate-protein complexes.
Analyses of the kinetic data were performed using SigmaPlot version 13.0 and Python. The drug competition models were globally fit to the kinetic data using the least-squares method and ranked according to their corrected Akaike information criterion difference (ΔAICC) and their Akaike weight, using Python. The two top-ranked models were compared using an F-test.
This factor reflects how much the affinity of the transporter for one drug changes when the other drug is already bound in the protein cavity. In the former model, α > 0 and α ≠ 1. In the latter model, it could be thought of as if α = 1. Because of this, discriminating between the two models also means determining the value of α. In Mixed-type (Partial) inhibition, the apparent maximal velocity (Vmax,app) is given by Eq 22, Vmax,app=Vmax(1+β[S2]/αKS2)/(1+[S2]/αKS2) (Eq 22)
Vmax,app is the maximal rate of substrate transport at a certain inhibitor concentration. The half-maximal inhibitory concentration is given by the term in the denominator different from [S2], which in this case is αKS2. This means that by plotting Vmax,app as a function of [S2], the value of αKS2 can be derived after fitting the curve to Eq 23.
The half-maximal inhibitory concentration derived from this hyperbolic equation is equal to KS2. By plotting Vmax,app/KM,app as a function of [S2], one can derive KS2 after fitting the curve to Eq 25. The value of α can then be calculated dividing αKS2 by KS2.

## Clc1ccc2c(N3CCN(CCCN4CCN(c5ccnc6cc(Cl)ccc56)CC4)CC3)ccnc2c1 [PPQ, piperaquine]
50 µM CQ
  PfCRTDd2-mediated PPQ transport 500 µM PPQ: 89.07 pmol oocyte-1 h-1 and 87.88 pmol oocyte-1 h-1 and 107.53 pmol oocyte-1 h-1
125 µM CQ
  PfCRTDd2-mediated PPQ transport 500 µM PPQ: 90.95 pmol oocyte-1 h-1 and 93.39 pmol oocyte-1 h-1 and 84.66 pmol oocyte-1 h-1
200 µM CQ
  PfCRTDd2-mediated PPQ transport 500 µM PPQ: 77.82 pmol oocyte-1 h-1 and 87.40 pmol oocyte-1 h-1 and 96.04 pmol oocyte-1 h-1
400 µM CQ
  PfCRTDd2-mediated PPQ transport 500 µM PPQ: 65.21 pmol oocyte-1 h-1 and 77.83 pmol oocyte-1 h-1 and 82.19 pmol oocyte-1 h-1
1/[PPQ] 0.002000 µM-1
  v / (Vmax - v): 0.5629
1/[PPQ] 0.002857 µM-1
  v / (Vmax - v): 0.5805
1/[PPQ] 0.005000 µM-1
  v / (Vmax - v): 0.7051
1/[PPQ] 0.008000 µM-1
  v / (Vmax - v): 0.9675
1/[PPQ] 0.020000 µM-1
  v / (Vmax - v): 1.1790
16 models, ΔAICC, Akaike weight, F-test, label = cold inhibitor of the other drug's transport
  most plausible inhibition model: partial noncompetitive inhibition
Mixed (Partial) model, drug as radiolabeled substrate
  Vmax, maximal velocity of drug transport: 130 ± 3 pmol oocyte^-1 h^-1
Mixed (Partial) model, drug as cold inhibitor, read-out: KS, dissociation constant for the PfCRT-substrate complex
  Kd: 210 ± 50 µM
Mixed (Partial) model, drug as radiolabeled substrate, read-out: KS, dissociation constant for the PfCRT-substrate complex
  Kd: 125 ± 9 µM
Mixed (Partial) model
  β, partiality factor: 0.63 ± 0.08
Mixed (Partial) model, label = radiolabeled substrate, other drug cold inhibitor
  α, KS interaction factor: 1.2 ± 0.3
Noncompetitive (Partial) model, drug as radiolabeled substrate, other drug as cold inhibitor
  Vmax, maximal velocity of drug transport: 131 pmol oocyte^-1 h^-1 and 131 ± 2 pmol oocyte^-1 h^-1
Noncompetitive (Partial) model, drug as cold inhibitor, read-out: KS, dissociation constant for the PfCRT-substrate complex
  Kd: 201 µM and 200 µM
Noncompetitive (Partial) model, drug as radiolabeled substrate, read-out: KS, dissociation constant for the PfCRT-substrate complex
  Kd: 130 ± 6 µM
Noncompetitive (Partial) model
  β, partiality factor: 0.60 and 0.60 ± 0.06
[CQ] 0 µM
  KMapp ([3H]PPQ + CQ): 122.92 µM
  Vmaxapp ([3H]PPQ + CQ): 130.71 pmol oocyte-1 h-1
  Vmaxapp/KMapp ([3H]PPQ + CQ): 1.0634 h⁻¹
[CQ] 25 µM
  KMapp ([3H]PPQ + CQ): 130.31 µM
  Vmaxapp ([3H]PPQ + CQ): 125.79 pmol oocyte-1 h-1
  Vmaxapp/KMapp ([3H]PPQ + CQ): 0.9653 h⁻¹
[CQ] 50 µM
  KMapp ([3H]PPQ + CQ): 129.68 µM
  Vmaxapp ([3H]PPQ + CQ): 119.39 pmol oocyte-1 h-1
  Vmaxapp/KMapp ([3H]PPQ + CQ): 0.9206 h⁻¹
[CQ] 125 µM
  KMapp ([3H]PPQ + CQ): 128.38 µM
  Vmaxapp ([3H]PPQ + CQ): 113.74 pmol oocyte-1 h-1
  Vmaxapp/KMapp ([3H]PPQ + CQ): 0.8860 h⁻¹
[CQ] 200 µM
  KMapp ([3H]PPQ + CQ): 133.02 µM
  Vmaxapp ([3H]PPQ + CQ): 109.91 pmol oocyte-1 h-1
  Vmaxapp/KMapp ([3H]PPQ + CQ): 0.8262 h⁻¹
[CQ] 400 µM
  KMapp ([3H]PPQ + CQ): 140.80 µM
  Vmaxapp ([3H]PPQ + CQ): 99.57 pmol oocyte-1 h-1
  Vmaxapp/KMapp ([3H]PPQ + CQ): 0.7072 h⁻¹
Secondary plot, half-maximum inhibitory concentration of Vmax,app versus inhibitor concentration, read-out: αKS, dissociation constant between the drug and the PfCRT complex with the other drug
  Kd: 205 ± 50 µM
Secondary plots, label = prebound drug
  α (αKS divided by KS): 0.9 ± 0.7
